Values of other authors as cited in patent EP2117510B1, “PARENTERAL PHARMACEUTICAL COMPOSITION AND METHOD FOR PREPARING THE SAME” (Physica Pharma, priority 2007, dated 2008).

Conditions: water, room temperature (environ 22° C)

SMILES: CC(C)c1cccc(C(C)C)c1O [Propofol, 2,6-diisopropylphénol]
- solubilité dans l'eau: ~160 µg/mL
